“Also recorded” adds a separate entry of the source.
Assays:
Type in all cases: cell-based
[1] = test system: human melanoma tumor cell line A375; test: Complexed TRAIL induced apoptosis in A375 cells in combination with SIK3 inhibitor; conditions: 10 ng/ml complexed TRAIL plus E9 vs DMSO control, caspase 3/7 at 8 hours, annexin V and cytotox red at 24 hours, FIG. 5
Method: (§1) The experiments were done briefly as follows: murine colorectal carcinoma cell line MC38, murine triple negative breast cancer cell line EMT6 and human melanoma tumor cell line A375 were treated with 1 ng/ml TNF, 0.8 ng/ml murine death receptor 5 targeting antibody (clone MD5-1) and 10 ng/ml complexed TRAIL, respectively, or with the appropriate negative controls, in combination with the SIK3 inhibitor E9 and an associated DMSO control. The onset of tumor cell death was monitored 8 hours after treatment initiation by analyzing cleavage of effector caspases 3/7 using Caspase-Glo® assay from Promega according to manufacturer's protocol. In addition, 24 hours after treatment initiation, the increase in extracellular phosphatidylserine expression was measured by annexin V expression level and cell membrane disruption by cytotox red staining, both according to manufacturer's protocol.

[2] = test system: murine triple negative breast cancer cell line EMT6; test: Death receptor 5 antibody (MD5-1) induced apoptosis in EMT6 cells in combination with SIK3 inhibitor; conditions: 0.8 ng/ml murine death receptor 5 targeting antibody (clone MD5-1) plus E9 vs DMSO control, caspase 3/7 at 8 hours, annexin V and cytotox red at 24 hours, FIG. 4
Method: as §1

[3] = test system: murine colorectal carcinoma cell line MC38; test: TNF induced apoptosis in MC38 cells in combination with SIK3 inhibitor; conditions: 1 ng/ml TNF plus E9 vs DMSO control, caspase 3/7 at 8 hours, annexin V and cytotox red at 24 hours, FIG. 3
Method: as §1

**Q.** What does the source list for Cc1nc(Nc2ncc(C(=O)Nc3c(CF)csc3Cl)s2)cc(N2CCN(C)CC2)n1 [Compound E9, N-(2-chloro-4-(fluoromethyl)thiophen-3-yl)-2-((2-methyl-6-(4-methylpiperazin-1-yl)pyrimidin-4-yl)amino)thiazole-5-carboxamide]?
**A.** enhancement of death receptor induced apoptosis (caspase-3/7 cleavage, annexin V, cytotox red) [1]: enhanced death receptor mediated apoptosis; also recorded: potent enhancement of death receptor induced apoptosis; enhancement of death receptor induced apoptosis (caspase-3/7 cleavage, annexin V, cytotox red) [2]: potent enhancement of death receptor induced apoptosis; also recorded: enhanced death receptor mediated apoptosis; enhancement of death receptor induced apoptosis (caspase-3/7 cleavage, annexin V, cytotox red) [3]: potent enhancement of death receptor induced apoptosis; also recorded: enhanced death receptor mediated apoptosis

— patent US20250249000A1, “SIK3 INHIBITORS FOR TREATING DISEASES RESISTANT TO DEATH RECEPTOR SIGNALLING” (IOMX THERAPEUTICS AG, priority 2022, published 2025)
